# Patent publication US6040320A, “2-substituted imidazoles useful in the treatment of inflammatory diseases” (Ortho-McNeil Pharmaceutical, Inc., priority 1998, dated 2000)
# Where two headings read alike, the source gives them in different places.
# How the values were obtained:
# [1] = system: TNF-α; assay: in vitro whole cell assay: LPS-stimulated TNF-α production in PBMC (ELISA); format: cell-based, human; conditions: for IC50: read-out: TNF-α IC50
# Method: In addition to the enzyme assay, the compounds of the invention were tested in an in vitro whole cell assay using peripheral blood mononuclear cells ("PBMC") which were obtained from human blood as follows. Freshly obtained venous blood was anticoagulated with heparin, diluted with an equal volume of phosphate buffered saline ("PBS") and placed in a sterile tube or other container. Aliquots (30 mL) of this mixture were transferred to centrifuge tubes which were underlaid with Ficoll-Hypaque (15 mL). The prepared tubes were centrifuged at 400×g without braking for 30 min at room temperature. Approximately 1/2 to 2/3 of the platelet layer above the mononuclear cell band was removed with a pipet. The majority of the mononuclear cell layer was carefully removed using a pipet and these PBMCs were diluted with PBS and spun at 600×g for 15 min. The resulting PBMCs were washed with another portion of PBS and spun at 400×g for 10 min at room temperature. The recovered pellets were diluted in low endotoxin RPMI/1% FCS culture medium and gave a cell concentration of 0.5-2.0 X 10^6 PMBC/mL. A small volume of the suspension was removed for counting on a hemocytometer and the remaining preparation was centrifuged at 200×g for 15 min at room temperature. The recovered pelleted PMBC were resuspended in RPMI/1% FCS to a concentration of 1.67×10^6 /mL.
# To run the assay, the PBMC suspension (180 μL) was transferred to duplicate wells of a 96-well flat-bottom microtiter plate and incubated for 1 h at 37° C. A solution of test compound (10 μL: prepared at 20×the desired final concentration) was added to each well and the plate was incubated for 1 h at 37° C. A solution (10 μL) of LPS in RPMI/1% FCS (200 ng/mL) was added and the wells were incubated overnight at 37° C. The supernate (100 μL) was removed from each well and diluted with RPMI/1% FCS (400 μL). The samples were analyzed for TNF-α using a commercial ELISA kit (Genzyme). […] Since imidazoles which are unsubstituted at the 1-position are subject to tautomerization, the substituents listed for R1 and R2 are interchangeable when R3 is hydrogen.
# [2] = system: TNF-α; assay: in vivo rodent assay: inhibition of LPS induced TNF-α production, mouse; conditions: oral, 25 mg/kg, LPS 1 mg/kg i.p.
# Method: Mice (BALB / cJ females, Jackson Laboratories) or rats (Lewis males, Charles River) were fasted for 30 min prior to oral dosing with 5-10 mL/kg of test compound at 5-50 mg/kg. Thirty minutes after dosing, the animals were injected intraperitoneally with LPS at 1 mg/kg and returned to their cages for I h. Animals were anesthetized by CO2, exsanguinated by cardiac puncture and whole blood collected (0.1-0.7 mL). The blood was allowed to clot and serum was transferred to a centrifuge tube. This sample was centrifuged, serum was collected, aliquoted and frozen at -80° C. Samples were tested by commercial ELISAs for TNF-α (Endogen for mouse TNF-α and Biosource for rat TNF-α). Compounds 15 and 56 inhibited TNF-α production in the mouse at 88% and 37% respectively at a dose of 25 mg/kg.
# [3] = molecular target: T1, p38 (Homo sapiens, UniProt Q16539); assay: in vitro inhibition of p38 (CPSB): purified recombinant 6xHis-p38, myelin basic protein substrate, 33P-ATP; format: biochemical
# T1 construct: 6xHis (N); made in house; host or cells: E. coli
# T1 sequence (Q16539 whole entry): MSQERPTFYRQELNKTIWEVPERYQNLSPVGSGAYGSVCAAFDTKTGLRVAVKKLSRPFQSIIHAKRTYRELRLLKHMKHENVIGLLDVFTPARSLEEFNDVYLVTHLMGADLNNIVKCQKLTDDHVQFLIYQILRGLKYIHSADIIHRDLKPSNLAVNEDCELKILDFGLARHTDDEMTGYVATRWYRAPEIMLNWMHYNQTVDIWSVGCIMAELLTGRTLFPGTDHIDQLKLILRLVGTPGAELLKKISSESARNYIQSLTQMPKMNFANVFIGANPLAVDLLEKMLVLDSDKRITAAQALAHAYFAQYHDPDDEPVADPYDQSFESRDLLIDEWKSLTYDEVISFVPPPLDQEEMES
# Method: Compounds of the invention were measured for their ability to inhibit the activity of p38 by the following in vitro assay.
# A solution (38 μL) of purified recombinant p38 (where the amount of enzyme was determined empirically considering the linear range of the assay and the acceptable signal to noise ratio; 6xHis-p38 expressed in E.coli), myelin basic protein substrate (also determined empirically), a buffer of pH 7.5 (Hepes:25 mM, MgCl2 :10 mM, MnCl2 :10 mM) were added to 92 wells of a 96-well round bottom polypropylene plate. The remaining wells were used for control ("CTRL") and background ("BKG"). The CTRL was prepared with the enzyme, substrate buffer and 2% DMSO, and the BKG was prepared with substrate buffer and 2% DMSO. A solution (12 μL) of the test compound in DMSO (compounds were diluted to 125 μM in 10% DMSO/H2 O and assayed at 25 μM where the final DMSO concentration was 2%) was added to the testing wells. The ATP/^33 P-ATP solution (10 μL: containing 50 μM unlabeled ATP and 1 μCi ^33 P-ATP) was added to all wells and the completed plates were mixed and incubated at 30° C. for 30 min. Icecold 50% TCA/10 mM sodium phosphate (60 μL) were added to each well and the plates were kept on ice for 15 min. The contents of each well were transferred to the wells of a 96-well filterplate (Millipore, MultiScreen-DP) and the filterplate was placed on a vacuum manifold, fitted with a waste collection tray. The wells were washed five times with 10% TCA/10 mM sodium phosphate (200 μL) under vacuum. MicroScint-20 scintillant was added, the plates were sealed using Topseal-S sheets and counted in a Packard TopCount scintillation counter using a ^33 P liquid program with color quench correction, where the output is in color quench-corrected cpm. The % inhibition of the test compounds was calculated by the following formula: % inhibition=[1-(sample-BKG)/(CTRL-BKG)]×100.
# Although compounds were initially tested at 25 μM, if warranted the compounds were tested at 4-fold increments above and below that concentration. In addition, lC50 s were calculated for some compounds using the Deltagraph 4-parameter curve fitting program.
# [4] = system: IL-1β; assay: in vitro IL-1β production by LPS-stimulated plastic-adherent cells from PBMC (ELISA); format: cell-based; conditions: adherent cells from human PBMC, read-out: inhibited the production of IL-1B, IC50
# Method: Aliquots (30 mL) of this mixture were transferred to centrifuge tubes which were underlaid with Ficoll-Hypaque (15 mL). The prepared tubes were centrifuged at 400×g without braking for 30 min at room temperature. […] A small volume of the suspension was removed for counting on a hemocytometer and the remaining preparation was centrifuged at 200×g for 15 min at room temperature.
"IC50 ([1]; human PBMC, LPS)",Structure (SMILES),IC50 [3],"IC50 ([1]; Homo sapiens, PBMC)",also measured
40 nM,"O=S(=O)(CCO)Cc1nc(-c2ccncc2)c(-c2ccc(F)cc2)[nH]1 [Compound 15, 5-(4-Fluorophenyl)-2-[4-hydroxy-2-sulfonyl-but-1-yl]-4-(4-pyridyl)-imidazole]",,,inhibited TNF-α production in the mouse [2]: 88%
,"CC(=O)OCCCCc1nc(-c2ccc(F)cc2)c(-c2ccncc2)n1Cc1ccccc1 [Compound 17, 4-[1-Benzyl-4-(4-fluorophenyl)-5-(4-pyridyl)imidazol-2-yl]butyl acetate]",2630 nM,500 nM,
30 nM,O=C1c2ccccc2C(=O)N1CCCn1c(CO)nc(-c2ccc(F)cc2)c1-c1ccncc1 [Compound 56],,,inhibited TNF-α production in the mouse [2]: 37%
,CC(=O)OCCCCc1nc(-c2ccncc2)c(-c2ccc(F)cc2)n1COCC[Si](C)(C)C [Compound 45],,,"CPSB % inhibition ([3]; @ 20 μm): 8%; TNF-α inhibition in words ([1]; human PBMC, LPS): inactive"
,O=C(NCCCSc1nc(-c2ccncc2)c(-c2ccc(F)cc2)[nH]1)c1ccccc1 [Compound 26],2180 nM,100 nM,
500 nM,O=C1c2ccccc2C(=O)N1CCSc1nc(-c2ccc(F)cc2)c(-c2ccncc2)[nH]1 [Compound 25],,,CPSB % inhibition ([3]; @ 5 μm): 52%
,"O=C(NCCCSc1nc(-c2ccncc2)c(-c2ccc(F)cc2)[nH]1)c1cccs1 [Compound 4, 5(4)-(4-Fluorophenyl)-2-(3-(thien-2-ylamido)prop-1-yl)thio-4(5)-(4-pyridyl)-imidazole]",1250 nM,10 nM,
55 nM,CCCS(=O)(=O)Cc1nc(-c2ccncc2)c(-c2ccc(F)cc2)[nH]1 [Compound 59],,,IC50 [4]: 350 nM
,"O=Cc1nc(-c2ccncc2)c(-c2ccc(F)cc2)[nH]1 [Compound 8, 5(4)-(4-Fluorophenyl)-4(5)-(4-pyridyl)-2-imidazole carboxaldehyde]",800 nM,140 nM,
400 nM,"O=C(CCCO)c1nc(-c2ccncc2)c(-c2ccc(F)cc2)[nH]1 [Compound 10, 4-Hydroxy-1-[5-(4-fluorophenyl)-4-(4-pyridyl)-imidazol-2-yl]butanone]",,,IC50 [4]: 800 nM
100 nM,O=S(=O)(NCCCSc1nc(-c2ccc(F)cc2)c(-c2ccncc2)[nH]1)c1ccccc1 [Compound 30],,,CPSB % inhibition ([3]; @ 20 μm): 92%
,CC(=O)OCCCCc1nc(-c2ccncc2)c(-c2ccc(F)cc2)n1C(=O)OCc1ccccc1 [Compound 18],,,CPSB % inhibition ([3]; @ 5 μm): 10%
112 nM,O=C(NCCCSc1nc(-c2ccc(F)cc2)c(-c2ccncc2)[nH]1)c1ccco1 [Compound 29],,,CPSB % inhibition ([3]; @ 20 μm): 91%
,"OCCCCc1nc(-c2ccncc2)c(-c2ccc(F)cc2)[nH]1 [Compound 16b, 4-[5(4)-(4-Fluorophenyl)4(5)-(4-pyridyl)imidazol-2-yl]butanol]",1590 nM,10 nM,
,"NCCCSc1nc(-c2ccc(F)cc2)c(-c2ccncc2)[nH]1 [Compound 3, 2-(3-Aminoprop-1-yl)thio-5(4)-(4-fluorophenyl)4(5)-(4-pyridyl)-imidazole]",,,CPSB % inhibition ([3]; @ 20 μm): 26%
,N#CCSc1nc(-c2ccncc2)c(-c2ccc(F)cc2)[nH]1 [Compound 38],400 nM,,
,O=C1c2ccccc2C(=O)N1CCCCSc1nc(-c2ccncc2)c(-c2ccc(F)cc2)[nH]1 [Compound 27],2460 nM,2000 nM,
,CCSc1nc(-c2ccncc2)c(-c2ccc(F)cc2)[nH]1 [Compound 39],400 nM,,
,"O=C1c2ccccc2C(=O)N1CCCSc1nc(-c2ccc(F)cc2)c(-c2ccncc2)[nH]1 [Compound 2, 5(4)-(4-Fluorophenyl)-2-(3-phthalimidoprop-1-yl)thio-4(5)-(4-pyridyl)-imidazole]",790 to 1800 nM,1000 nM,
,O=C(NCCCSc1nc(-c2ccncc2)c(-c2ccc(F)cc2)[nH]1)c1cccc2ccccc12 [Compound 28],1250 nM,97 nM,IC50 [4]: 86 nM
,CC(=O)OCCCCc1nc(-c2ccncc2)c(-c2ccc(F)cc2)n1Cc1ccccc1 [Compound 42],,,CPSB % inhibition ([3]; @ 5 μm): 2%
,C[Si](C)(C)CCOCn1c(CCCCO)nc(-c2ccncc2)c1-c1ccc(F)cc1 [Compound 46],,,"CPSB % inhibition ([3]; @ 20 μm): 9%; TNF-α inhibition in words ([1]; human PBMC, LPS): inactive"
,"CC(=O)OCCCCc1nc(-c2ccncc2)c(-c2ccc(F)cc2)[nH]1 [Compound 16a, 4-[5(4)-(4-Fluorophenyl)-(5)-(4-pyridyl)imidazol-2-yl]butayl acetate]",1420 nM,,
